According to US8367357B2, “Two secretory luciferases” (National Institute of Advanced Industrial Science and …, priority 2006, dated 2013):

How the values were obtained:
[1] = residual activity / half life of coelenterazine in solutions with or without antioxidant; assay type: physicochemical; conditions: 10 μM coelenterazine, 0.1M Tris-HCl pH 7.4/0.3 M Sodium ascorbate vs NaCl, Na2SO3, Thiourea solutions
Description: The following four solutions were prepared, coelenterazine was dissolved at a final concentration of 10 μM, and the residual activity of coelenterazine was examined to determine a half life. In FIG. 7, the half life is shown in the solution of (1) 0.1M Tris-HCl pH 7.4/0.3 M NaCl, (2) 0.1M Tris-HCl pH 7.4/0.3 M Sodium ascorbate, (3) 0.1M Tris-HCl pH 7.4/0.2 M Na2SO3 or (4) 0.1M Tris-HCl pH 7.4/0.2 M Thiourea. […] It is desirable to add sodium ascorbate in the dual reporter assay.

copepod luciferase = test: ratio of luminescence to self-luminescence by copepod luciferase; assay type: biochemical; conditions: 10 μM or 100 μM coelenterazine, copepod luciferase medium with 10% FBS, with sodium ascorbate salt solution
Description: Using the medium (containing 10% FBS) of copepod luciferase secreted from the animal cells, the coelenterazine solution prepared in Example 8 was dissolved at a final concentration of 10 μM or 100 μM, and the resulting solution was mixed with the medium (containing 10% FBS) for the animal cells at 1:1 (volume ratio), and the luminescence for 10 seconds was measured as the background activity. At that time, a reaction solution was 0.1M Tris-HCl pH 7.4/0.3 M, and the effect with or without the addition of 0.3 M […] was examined. The luminescence activity was measured, the ratio of the actually measured value to the self-luminescence (signal to background) was calculated, and collectively shown in FIG. 9. […] This way, the antioxidant has almost no effect on the oxidation reaction by luciferase and could reduce only the background.

[2] = self-luminescence activity of coelenterazine in 10% FBS solution; assay type: physicochemical; conditions: 10 μM or 100 μM coelenterazine, 10% FBS medium, with sodium ascorbate salt solution
Description: The following two solutions were prepared, coelenterazine was dissolved at a final concentration of 10 μM or 100 μM, the solution was mixed with the medium for animal cells (solution containing 10% FBS), and the luminescence for 10 seconds was measured as the background. […] The luminescence activity (RLU: relative light unit) was measured, the ratio of its actually measured value to the self-luminescence was calculated and correctively shown in FIG. 8.

Compound: Oc1ccc(Cc2nc3c(Cc4ccccc4)nc(-c4ccc(O)cc4)cn3c2O)cc1 [coelenterazine]
- half life [1]: widely prolonged
- ratio of the luminescence to the self-luminescence (signal to background) (copepod luciferase): at least two times or more
- self-luminescence (background, RLU) [2]: reduction of the self-luminescence
